Values after ≈ are worked out from the molar mass of the structure shown. Like-named read-outs stand apart in the source and are kept apart here.
Tested on: Pseudomonas aeruginosa
Assay: MIC by agar dilution against 61 strains of Pseudomonas aeruginosa, secondary evaluation
Type: cell-based
How it was run: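 Agar dilution MICs were determined on Mueller-Hinton medium with two-fold compound steps and Steers' multipoint inoculation, across 31 primary-screen organisms and 61 P. aeruginosa strains.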

SMILES: CC1(C)S[C@@H]2[C@H](NC(=O)C(c3ccccc3)S(=O)(=O)O)C(=O)N2[C@H]1C(=O)O (some centres unmarked) [Sulbenicillin, sulbenicillin]
- MIC (BBRI Pa-No. 1, D15, Table 7): 12.5 µg/mL (≈ 30.2 µM)
- MIC (BBRI Pa-No. 3, 1449VA, Table 7): 12.5 µg/mL (≈ 30.2 µM)
- MIC (BBRI Pa-No. 4, H9 D113, Table 7): 12.5 µg/mL (≈ 30.2 µM)
- MIC (BBRI Pa-No. 9, Yale, Table 7): 12.5 µg/mL (≈ 30.2 µM)
- MIC (BBRI Pa-No. 14, Table 7): 12.5 µg/mL (≈ 30.2 µM)
- MIC (BBRI Pa-No. 17, H6 D114, Table 2): 12.5 µg/mL (≈ 30.2 µM)
- MIC (BBRI Pa-No. 18, H8 D121, Table 2): 12.5 µg/mL (≈ 30.2 µM)
- MIC (BBRI Pa-No. 19, Table 2): 12.5 µg/mL (≈ 30.2 µM)
- MIC (BBRI Pa-No. 25, Table 2): 12.5 µg/mL (≈ 30.2 µM)
- MIC (BBRI Pa-No. 26, Ps32, Table 2): 12.5 µg/mL (≈ 30.2 µM)
- MIC (BBRI Pa-No. 26, Ps32, Table 7): 12.5 µg/mL (≈ 30.2 µM)
- MIC (BBRI Pa-No. 31, Table 2): 12.5 µg/mL (≈ 30.2 µM)
- MIC (BBRI Pa-No. 34, Table 7): 12.5 µg/mL (≈ 30.2 µM)
- MIC (BBRI Pa-No. 60, Table 2): 12.5 µg/mL (≈ 30.2 µM)
- MIC (BBRI Pa-No. 60, Table 7): 12.5 µg/mL (≈ 30.2 µM)
- MIC (Pseudomonas aeruginosa): 12.5 µg/mL (≈ 30.2 µM)
- MIC (Pseudomonas aeruginosa, 61 strains of Pseudomonas aeruginosa, Table 7, read-out: Geometric Mean of MIC): 24 µg/mL (≈ 57.9 µM)
- MIC (Pseudomonas aeruginosa, BBRI Pa-No. 1, D15, Table 2, read-out: MIC): 25 µg/mL (≈ 60.3 µM)
- MIC (Pseudomonas aeruginosa, BBRI Pa-No. 2, VA, Table 7, read-out: MIC): 25 µg/mL (≈ 60.3 µM)
- MIC (Pseudomonas aeruginosa, BBRI Pa-No. 3, 1449VA, Table 2, read-out: MIC): 6.3 µg/mL (≈ 15.2 µM)
- MIC (Pseudomonas aeruginosa, BBRI Pa-No. 4, H9 D113, Table 2, read-out: MIC): 25 µg/mL (≈ 60.3 µM)
- MIC (Pseudomonas aeruginosa, BBRI Pa-No. 5, M4865KC, Table 2, read-out: MIC): 25 µg/mL (≈ 60.3 µM)
- MIC (Pseudomonas aeruginosa, BBRI Pa-No. 5, N4865KC, Table 7, read-out: MIC): 6.3 µg/mL (≈ 15.2 µM)
- MIC (Pseudomonas aeruginosa, BBRI Pa-No. 6, No. 5, Table 2, read-out: MIC): > 100 µg/mL
- MIC (Pseudomonas aeruginosa, BBRI Pa-No. 6, No. 5, Table 7, read-out: MIC): 100 µg/mL (≈ 241 µM)
- MIC (Pseudomonas aeruginosa, BBRI Pa-No. 7, Table 2, read-out: MIC): 25 µg/mL (≈ 60.3 µM)
- MIC (Pseudomonas aeruginosa, BBRI Pa-No. 7, Table 7, read-out: MIC): 25 µg/mL (≈ 60.3 µM)
- MIC (Pseudomonas aeruginosa, BBRI Pa-No. 8, Table 2, read-out: MIC): 25 µg/mL (≈ 60.3 µM)
- MIC (Pseudomonas aeruginosa, BBRI Pa-No. 8, Table 7, read-out: MIC): 25 µg/mL (≈ 60.3 µM)
- MIC (Pseudomonas aeruginosa, BBRI Pa-No. 9, Yale, Table 2, read-out: MIC): 25 µg/mL (≈ 60.3 µM)
- MIC (Pseudomonas aeruginosa, BBRI Pa-No. 10, Table 2, read-out: MIC): > 100 µg/mL
- MIC (Pseudomonas aeruginosa, BBRI Pa-No. 10, Table 7, read-out: MIC): > 100 µg/mL
- MIC (Pseudomonas aeruginosa, BBRI Pa-No. 11, Table 2, read-out: MIC): 25 µg/mL (≈ 60.3 µM)
- MIC (Pseudomonas aeruginosa, BBRI Pa-No. 11, Table 7, read-out: MIC): 25 µg/mL (≈ 60.3 µM)
- MIC (Pseudomonas aeruginosa, BBRI Pa-No. 12, Table 2, read-out: MIC): 50 µg/mL (≈ 121 µM)
- MIC (Pseudomonas aeruginosa, BBRI Pa-No. 12, Table 7, read-out: MIC): 25 µg/mL (≈ 60.3 µM)
- MIC (Pseudomonas aeruginosa, BBRI Pa-No. 14, Table 2, read-out: MIC): 25 µg/mL (≈ 60.3 µM)
- MIC (Pseudomonas aeruginosa, BBRI Pa-No. 15, Table 2, read-out: MIC): 100 µg/mL (≈ 241 µM)
- MIC (Pseudomonas aeruginosa, BBRI Pa-No. 15, Table 7, read-out: MIC): 50 µg/mL (≈ 121 µM)
- MIC (Pseudomonas aeruginosa, BBRI Pa-No. 16, No. 130, Table 2, read-out: MIC): 6.3 µg/mL (≈ 15.2 µM)
- MIC (Pseudomonas aeruginosa, BBRI Pa-No. 16, No. 130, Table 7, read-out: MIC): 3.1 µg/mL (≈ 7.48 µM)
- MIC (Pseudomonas aeruginosa, BBRI Pa-No. 17, H6 D114, Table 7, read-out: MIC): 25 µg/mL (≈ 60.3 µM)
- MIC (Pseudomonas aeruginosa, BBRI Pa-No. 18, H8 D121, Table 7, read-out: MIC): 3.1 µg/mL (≈ 7.48 µM)
- MIC (Pseudomonas aeruginosa, BBRI Pa-No. 19, Table 7, read-out: MIC): 6.3 µg/mL (≈ 15.2 µM)
- MIC (Pseudomonas aeruginosa, BBRI Pa-No. 20, Table 2, read-out: MIC): 25 µg/mL (≈ 60.3 µM)
- MIC (Pseudomonas aeruginosa, BBRI Pa-No. 20, Table 7, read-out: MIC): 25 µg/mL (≈ 60.3 µM)
- MIC (Pseudomonas aeruginosa, BBRI Pa-No. 21, Table 2, read-out: MIC): 25 µg/mL (≈ 60.3 µM)
- MIC (Pseudomonas aeruginosa, BBRI Pa-No. 21, Table 7, read-out: MIC): 25 µg/mL (≈ 60.3 µM)
- MIC (Pseudomonas aeruginosa, BBRI Pa-No. 23, Table 2, read-out: MIC): 50 µg/mL (≈ 121 µM)
- MIC (Pseudomonas aeruginosa, BBRI Pa-No. 23, Table 7, read-out: MIC): 25 µg/mL (≈ 60.3 µM)
- MIC (Pseudomonas aeruginosa, BBRI Pa-No. 24, Table 2, read-out: MIC): 100 µg/mL (≈ 241 µM)
- MIC (Pseudomonas aeruginosa, BBRI Pa-No. 24, Table 7, read-out: MIC): > 100 µg/mL
- MIC (Pseudomonas aeruginosa, BBRI Pa-No. 25, Table 7, read-out: MIC): 6.3 µg/mL (≈ 15.2 µM)
- MIC (Pseudomonas aeruginosa, BBRI Pa-No. 28, CPH1C527/72, Table 7, read-out: MIC): 50 µg/mL (≈ 121 µM)
- MIC (Pseudomonas aeruginosa, BBRI Pa-No. 28, CPH10527/72, Table 2, read-out: MIC): 50 µg/mL (≈ 121 µM)
- MIC (Pseudomonas aeruginosa, BBRI Pa-No. 29, D122, Table 2, read-out: MIC): 25 µg/mL (≈ 60.3 µM)
- MIC (Pseudomonas aeruginosa, BBRI Pa-No. 29, D122, Table 7, read-out: MIC): 25 µg/mL (≈ 60.3 µM)
- MIC (Pseudomonas aeruginosa, BBRI Pa-No. 30, Table 2, read-out: MIC): 25 µg/mL (≈ 60.3 µM)
- MIC (Pseudomonas aeruginosa, BBRI Pa-No. 30, Table 7, read-out: MIC): 25 µg/mL (≈ 60.3 µM)
- MIC (Pseudomonas aeruginosa, BBRI Pa-No. 31, Table 7, read-out: MIC): 3.1 µg/mL (≈ 7.48 µM)
- MIC (Pseudomonas aeruginosa, BBRI Pa-No. 32, Table 2, read-out: MIC): 25 µg/mL (≈ 60.3 µM)
- MIC (Pseudomonas aeruginosa, BBRI Pa-No. 32, Table 7, read-out: MIC): 25 µg/mL (≈ 60.3 µM)
- MIC (Pseudomonas aeruginosa, BBRI Pa-No. 33, Table 2, read-out: MIC): 100 µg/mL (≈ 241 µM)
- MIC (Pseudomonas aeruginosa, BBRI Pa-No. 33, Table 7, read-out: MIC): 25 µg/mL (≈ 60.3 µM)
- MIC (Pseudomonas aeruginosa, BBRI Pa-No. 34, Table 2, read-out: MIC): 25 µg/mL (≈ 60.3 µM)

— US4138554A, “7-[D-α-(4-Hydroxy-1,5-naphthyridine-3-carboxamido)-α-phenyl (and p-hydroxyphenyl)acetamido]-3-carbamoyloxymethyl-3-cephem-4-carboxylic acids” (priority 1977, dated 1979)
